Results from patent US20240393292A1, “ALLERGY ANTIGEN AND EPITOPE THEREOF” (HOYU CO., LTD., priority 2019, published 2024).

System: IgE antibodies from patients
Experiment: Wheat epitope mapping (2): overlapping 10-amino-acid peptide fragments shifted by one amino acid;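 as to Rank of partial sequence as epitope binding to IgE antibody: key = sequence deemed particularly important within the common 15-residue sequence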;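 as to epitope sequence binding to IgE antibody, rank (Key/Preferably/More preferably): key of grades: preferably = shorter partial sequence still acting as epitope; more preferably = sequence improving IgE binding; key = particularly important sequence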
Assay type: binding, human
In short: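 Residual binding was banded as <30% none, 30–<50% poor, 50–<70% somewhat poor and ≥70% retained, relative to the parent overlapping sequence set to 100%. Values were chemiluminescent IgE signals from patient sera after subtracting secondary-antibody-only controls. The peptides were spot-synthesised 10-mers shifted by one amino acid.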

[1] = serum of patient P26 (WDEIA), sequence without X
[2] = serum of patient P12 (WDEIA), sequence without X
[3] = serum of patient G2 (adult, general immediate type allergy to wheat), sequence without X
[4] = serum of patient P14 (WDEIA), sequence without X
[5] = serum of patient P7 (WDEIA), partial sequence
[6] = serum of patient P27 (WDEIA), sequence without X
[7] = serum of patient P53 (child, general immediate type allergy to wheat), partial sequence
[8] = serum of patient P31 (WDEIA), partial sequence
[9] = serum of patient P36 (WDEIA), sequence without X
[10] = serum of patient P34 (WDEIA), sequence without X

1336 (NVEN; REGION 1..4: note = epitope) [compound 1336]
Epitope sequence binding to IgE antibody, rank of the sequence [1]: Key

2578 (YQLVQQL; REGION 1..7: note = epitope) [compound 2578]
Epitope sequence binding to IgE antibody, rank of the sequence (serum of patient P29 (WDEIA), partial sequence): Key

1820 (PKFLK; REGION 1..5: note = epitope) [compound 1820]
epitope sequence binding to IgE antibody, rank (Key/Preferably/More preferably) (serum of patient P33 (WDEIA)): Key

2302 (IDKRVIERFE; REGION 1..10: note = epitope) [compound 2302]
Epitope sequence binding to IgE antibody, rank of the sequence (Key/Preferably/More preferably) (serum of patient G4 (adult, general immediate type allergy to wheat), sequence without X): Key

2441 (KAWSGK; REGION 1..6: note = epitope) [compound 2441]
Epitope sequence binding to IgE antibody, rank of the sequence (Key/Preferably/More preferably) (serum of patient P28 (WDEIA), sequence without X): Key

2424 (AWSGK; REGION 1..5: note = epitope) [compound 2424]
Epitope sequence binding to IgE antibody, rank of the sequence (Key/Preferably/More preferably) [2]: Preferably

2367 (VTEIV; REGION 1..5: note = epitope) [compound 2367]
Epitope sequence binding to IgE antibody, rank of the sequence (Key/Preferably/More preferably) (serum of patient P24 (WDEIA), sequence without X): Preferably

1663 (YNPDKVPFV; REGION 1..9: note = epitope) [compound 1663]
Rank of partial sequence as epitope binding to IgE antibody [3]: Preferably

1958 (QQFPGQQQ; REGION 1..8: note = epitope) [compound 1958]
epitope sequence binding to IgE antibody, rank (Key/Preferably/More preferably) (serum of patient P28 (WDEIA)): More preferably

2273 (GIDKRV; REGION 1..6: note = epitope) [compound 2273]
Epitope sequence binding to IgE antibody, rank of the sequence (Key/Preferably/More preferably) (serum of patient P8 (WDEIA), sequence without X): Key

2406 (TEIVL; REGION 1..5: note = epitope) [compound 2406]
Epitope sequence binding to IgE antibody, rank of the sequence (Key/Preferably/More preferably/Further preferably) (serum of patient P50 (child, general immediate type allergy to wheat), sequence without X): Preferably

2506 (SSQVSFQPSQ; REGION 1..10: note = epitope) [compound 2506]
Epitope sequence binding to IgE antibody, rank of the sequence (serum of patient P20 (WDEIA), partial sequence): Preferably

1933 (VPLVQQ; REGION 1..6: note = epitope) [compound 1933]
epitope sequence binding to IgE antibody, rank (Key/Preferably/More preferably) (serum of patient P17 (WDEIA)): Key

1532 (QVPLVQQQ; REGION 1..8: note = epitope) [compound 1532]
Rank of partial sequence as epitope binding to IgE antibody [4]: Preferably

1183 (QQFPPQQ; REGION 1..7: note = epitope) [compound 1183]
Epitope sequence binding to IgE antibody, rank of the sequence [4]: Key

2385 (VTEI; REGION 1..4: note = epitope) [compound 2385]
Epitope sequence binding to IgE antibody, rank of the sequence (Key/Preferably/More preferably) (serum of patient P29 (WDEIA), sequence without X): Key

1757 (KVGYNP; REGION 1..6: note = epitope) [compound 1757]
epitope sequence binding to IgE antibody, rank (Key/Preferably/More preferably) (serum of patient P8 (WDEIA)): Key

1857 (TVRTLQR; REGION 1..7: note = epitope) [compound 1857]
epitope sequence binding to IgE antibody, rank (Key/Preferably/More preferably) (serum of patient P18 (WDEIA)): Preferably

1897 (VPLVQQ; REGION 1..6: note = epitope) [compound 1897]
epitope sequence binding to IgE antibody, rank (Key/Preferably/More preferably) (serum of patient P2 (WDEIA)): Key

2228 (NYRVAI; REGION 1..6: note = epitope) [compound 2228]
Epitope sequence binding to IgE antibody, rank of the sequence (Key/Preferably/More preferably) (serum of patient P18 (WDEIA), sequence without X): Key

2704 (YKIGGI; REGION 1..6: note = epitope) [compound 2704]
Epitope sequence binding to IgE antibody, rank of the sequence (serum of patient P3 (WDEIA), partial sequence): Key

2633 (KEAAEM; REGION 1..6: note = epitope) [compound 2633]
Epitope sequence binding to IgE antibody, rank of the sequence [5]: Preferably

1939 (QVPLVQQ; REGION 1..7: note = epitope) [compound 1939]
epitope sequence binding to IgE antibody, rank (Key/Preferably/More preferably) (serum of patient P21 (WDEIA)): Preferably

2668 (KEAAE; REGION 1..5: note = epitope) [compound 2668]
Epitope sequence binding to IgE antibody, rank of the sequence (serum of patient P57 (child, general immediate type allergy to wheat), partial sequence): Preferably

1629 (YNPD; REGION 1..4: note = epitope) [compound 1629]
Rank of partial sequence as epitope binding to IgE antibody [6]: Key

2519 (PSQLN; REGION 1..5: note = epitope) [compound 2519]
Epitope sequence binding to IgE antibody, rank of the sequence [7]: Key

2739 (YKIGGIG; REGION 1..7: note = epitope) [compound 2739]
Epitope sequence binding to IgE antibody, rank of the sequence [8]: Preferably

2499 (SQVSF; REGION 1..5: note = epitope) [compound 2499]
Epitope sequence binding to IgE antibody, rank of the sequence (serum of patient P8 (WDEIA), partial sequence): Preferably

2553 (QLVQ; REGION 1..4: note = epitope) [compound 2553]
Epitope sequence binding to IgE antibody, rank of the sequence [5]: Key

1762 (KEVSSYLKK; REGION 1..9: note = epitope) [compound 1762]
epitope sequence binding to IgE antibody, rank (Key/Preferably/More preferably) (serum of patient P27 (WDEIA)): Key

1824 (LPKFLK; REGION 1..6: note = epitope) [compound 1824]
epitope sequence binding to IgE antibody, rank (Key/Preferably/More preferably) (serum of patient P36 (WDEIA)): Key

1616 (FVPISG; REGION 1..6: note = epitope) [compound 1616]
Rank of partial sequence as epitope binding to IgE antibody (serum of patient P17 (WDEIA), sequence without X): Key

1664 (YNPDKVPF; REGION 1..8: note = epitope) [compound 1664]
Rank of partial sequence as epitope binding to IgE antibody [3]: Key

1626 (YNPD; REGION 1..4: note = epitope) [compound 1626]
Rank of partial sequence as epitope binding to IgE antibody [1]: Key

1749 (EAANFT; REGION 1..6: note = epitope) [compound 1749]
epitope sequence binding to IgE antibody, rank (Key/Preferably/More preferably) (serum of patient G6 (adult, general immediate type allergy to wheat)): Key

1648 (FVPISG; REGION 1..6: note = epitope) [compound 1648]
Rank of partial sequence as epitope binding to IgE antibody [9]: Key

1227 (PQQPPC; REGION 1..6: note = epitope) [compound 1227]
Epitope sequence binding to IgE antibody, rank of the sequence [2]: Key

2600 (QQLC; REGION 1..4: note = epitope) [compound 2600]
Epitope sequence binding to IgE antibody, rank of the sequence [7]: Key

1256 (PQQPP; REGION 1..5: note = epitope) [compound 1256]
Epitope sequence binding to IgE antibody, rank of the sequence [9]: Key

1423 (YLQPQ; REGION 1..5: note = epitope) [compound 1423]
Epitope sequence binding to IgE antibody, rank of the sequence (serum of patient P10 (WDEIA), sequence without X): Key

1162 (SIDQNAQG; REGION 1..8: note = epitope) [compound 1162]
Epitope sequence binding to IgE antibody, rank of the sequence (serum of patient G7 (adult, general immediate type allergy to wheat), sequence without X): Further preferably

2258 (LRGIRNYRVA; REGION 1..10: note = epitope) [compound 2258]
Epitope sequence binding to IgE antibody, rank of the sequence (Key/Preferably/More preferably) (serum of patient P55 (child, general immediate type allergy to wheat), sequence without X): Preferably

1472 (YLQPQQPIS; REGION 1..9: note = epitope) [compound 1472]
Rank of partial sequence as epitope binding to IgE antibody [6]: Preferably

1840 (RTLQ; REGION 1..4: note = epitope) [compound 1840]
epitope sequence binding to IgE antibody, rank (Key/Preferably/More preferably) (serum of patient P5 (WDEIA)): Key

2567 (QLVQQ; REGION 1..5: note = epitope) [compound 2567]
Epitope sequence binding to IgE antibody, rank of the sequence (serum of patient P26 (WDEIA), partial sequence): Key

2583 (QLVQQ; REGION 1..5: note = epitope) [compound 2583]
Epitope sequence binding to IgE antibody, rank of the sequence [8]: Preferably

2350 (YVTEIVL; REGION 1..7: note = epitope) [compound 2350]
Epitope sequence binding to IgE antibody, rank of the sequence (Key/Preferably/More preferably) [2]: More preferably

1483 (YLQPQQPIS; REGION 1..9: note = epitope) [compound 1483]
Rank of partial sequence as epitope binding to IgE antibody [10]: Preferably

1252 (PQQPP; REGION 1..5: note = epitope) [compound 1252]
Epitope sequence binding to IgE antibody, rank of the sequence (serum of patient P35 (WDEIA), sequence without X): Key

1484 (YLQPQQP; REGION 1..7: note = epitope) [compound 1484]
Rank of partial sequence as epitope binding to IgE antibody [10]: Key

1922 (QVPLVQQ; REGION 1..7: note = epitope) [compound 1922]
epitope sequence binding to IgE antibody, rank (Key/Preferably/More preferably) (serum of patient P12 (WDEIA)): Key

2288 (KRVIERF; REGION 1..7: note = epitope) [compound 2288]
Epitope sequence binding to IgE antibody, rank of the sequence (Key/Preferably/More preferably) [6]: Key

2601 (QQSTYQLVQ; REGION 1..9: note = epitope) [compound 2601]
Epitope sequence binding to IgE antibody, rank of the sequence [7]: Preferably

1770 (VSSYLKK; REGION 1..7: note = epitope) [compound 1770]
epitope sequence binding to IgE antibody, rank (Key/Preferably/More preferably) (serum of patient P50 (child, general immediate type allergy to wheat)): Key
